Key:
[1] = system: live grass (Bermudagrass (Common, Midiron, and Ormond), Tifway II, Tifway 419, Tifdwarf, and Tifgreen 328 grasses); assay: Methyldithiocarbamate trials: spray treatment of live golf course grass plots, leaf appearance scored; type: in vivo; parameters: key to score for appearance of the grass leaves: 0: burning of leaf tissue; 1: bronzing of leaf tissue; 2: burning of the tip of the leaf tissue; 3: No burning or change in color of the leaf tissue; 4: good greening of the leaf tissue; 5: excellent greening of the leaf tissue
Protocol: The effect of the application of methylammonium methyldithiocarbamate to live grass was determined in the following manner. Dilute aqueous solutions of three salts of the same dithiocarbamic acid derivative were prepared: methylammonium methyldithiocarbamate, sodium methyldithiocarbamate, and potassium methyldithiocarbamate. The solutions were prepared by mixing the dithiocarbamic acid derivative with water to achieve a concentration of between about 1.2 and 3.5% by weight.
Three plots of grass of substantially equal type, quality, color, and size were selected at each of several golf courses throughout the state of Florida. The grass at these courses consisted of one or a combination of Bermudagrass (Common, Midiron, and Ormond), Tifway II, Tifway 419, Tifdwarf, and Tifgreen 328 grasses. To each of these plots one of the methyldithiocarbamate salts were applied via an ordinary above-ground spraying system in an amount equivalent to between about 0.5 to 40 lbs of methyldithiocarbamate salt per acre of soil. All applications were watered in with 1/2 inch of water within 20 minutes of treatment, which moved the dithiocarbamic acid derivative into and slightly below the root zone of the grass.
The results of treating each plot with the methyldithiocarbamate salts were evaluated from 1 to 2 weeks after treatment by examining the appearance of the grass leaves. A score was assigned to each plot according to the following scale: 0=burning of leaf tissue; 1=bronzing of leaf tissue; 2=burning of the tip of the leaf tissue; 3=No burning or change in color of the leaf tissue; 4=good greening of the leaf tissue; 5=excellent greening of the leaf tissue. Where two values were assigned, the plot contained a substantial number of grass leaves of one score and a substantial number of the other score.

Morning Glory = details: stated in U.S. Pat. No. 2,766,554; cited from earlier work
[2] = four hours ultraviolet light from an arc; U.S. Pat. No. 2,835,625; cited from earlier work
[3] = 1. Grenelefe Resort, treated February 1998, evaluation 2 weeks after treatment
[4] = 1. Grenelefe Resort, treated January 1998, evaluation 2 weeks after treatment
[5] = 1. Grenelefe Resort, treated March 1998, evaluation 2 weeks after treatment
[6] = 2. Long Boat Key, treated April 1998, evaluation 1 week after treatment
[7] = 2. Long Boat Key, treated February 1998, evaluation 2 weeks after treatment
[8] = 2. Long Boat Key, treated March 1998, evaluation 2 weeks after treatment
[9] = 3. Indian River Club, treated April 1998, evaluation 1 week after treatment
[10] = 3. Indian River Club, treated March 1998, evaluation 2 weeks after treatment
[11] = 3. Indian River Club, treated May 1998, evaluation 1 week after treatment
[12] = 4. La Cita C.C., treated June 1998, evaluation 1 week after treatment
[13] = 4. La Cita C.C., treated March 1998, evaluation 1 week after treatment
[14] = 4. La Cita C.C., treated September 1998, evaluation 1 week after treatment
[15] = 5. Wellington C.C., treated April 1998, evaluation 2 weeks after treatment
[16] = 6. Dodgertown C.C., treated April 1998, evaluation 1 week after treatment
[17] = 6. Dodgertown C.C., treated May 1998, evaluation 1 week after treatment
[18] = 7. Westchester C.C., treated April 1998, evaluation 1 week after treatment
[19] = 8. President Club, treated July 1998, evaluation 1 week after treatment
[20] = 8. President Club, treated May 1998, evaluation 1 week after treatment
[21] = 9. Vero Beach C.C., treated June 1998, evaluation 1 week after treatment
[22] = 10. Admirals Cove, treated July 1998, evaluation 1 week after treatment
[23] = 11. Moorings C.C., treated August 1998, evaluation 1 week after treatment
[24] = 12. Hawks Nest C.C., treated August 1998, evaluation 1 week after treatment
[25] = 13. Woodmont C.C., treated June 1998, evaluation 1 week after treatment
[26] = 13. Woodmont C.C., treated September 1998, evaluation 1 week after treatment

SMILES	score for appearance of the grass leaves [1, 3]	score for appearance of the grass leaves [1, 4]	score for appearance of the grass leaves [1, 5]	score for appearance of the grass leaves [1, 6]	score for appearance of the grass leaves [1, 7]	score for appearance of the grass leaves [1, 8]	score for appearance of the grass leaves [1, 9]	score for appearance of the grass leaves [1, 10]	score for appearance of the grass leaves [1, 11]	score for appearance of the grass leaves [1, 12]	score for appearance of the grass leaves [1, 13]	score for appearance of the grass leaves [1, 14]	score for appearance of the grass leaves [1, 15]	score for appearance of the grass leaves [1, 16]	score for appearance of the grass leaves [1, 17]	score for appearance of the grass leaves [1, 18]	score for appearance of the grass leaves [1, 19]	score for appearance of the grass leaves [1, 20]	score for appearance of the grass leaves [1, 21]	score for appearance of the grass leaves [1, 22]	other results
CN.CNC(=S)S [METHYL AMMONIUM, methylammonium methyldithiocarbamate]	3-4	4	4	4	4	4	4	4	4	5	5	5	5	4	4	4	5	5	4-5	4	score for appearance of the grass leaves [1, 23]: 5; score for appearance of the grass leaves [1, 24]: 5; score for appearance of the grass leaves [1, 25]: 5; score for appearance of the grass leaves [1, 26]: 5; appearance of the grass leaf tissue, in words ([1]; Grenelefe Resort, February): improved only marginally in color; appearance of the grass leaf tissue, summary in words ([1]; all treated areas of Table 2): either good or excellent greening of the leaf tissue; results compared with potassium methyldithiocarbamate ([1]; all trials of Table 2): far better results than the potassium methyldithiocarbamate; results compared with sodium methyldithiocarbamate ([1]; all trials of Table 2): better results than the sodium methyldithiocarbamate; eradication of Morning Glory (Morning Glory): excellent eradicator of Morning Glory
CNC(=S)[S-].[K+] [POTASSIUM, potassium methyldithiocarbamate]	1	0	0-1	1-2	1	1-2	0-1	1	1-2	1	2	2	1	0	1-2	1	2-3	0	1	1-2	score for appearance of the grass leaves [1, 23]: 1; score for appearance of the grass leaves [1, 24]: 0; score for appearance of the grass leaves [1, 25]: 1-2; score for appearance of the grass leaves [1, 26]: 2-3
CNC(=S)[S-].[Na+] [SODIUM, sodium methyldithiocarbamate]	3	3	3-4	3	2	3	3	3	3-4	3-4	4	4	3	3	3-4	3	4	4	3-4	3-4	score for appearance of the grass leaves [1, 23]: 4; score for appearance of the grass leaves [1, 24]: 4; score for appearance of the grass leaves [1, 25]: 4; score for appearance of the grass leaves [1, 26]: 4
CC(C)OC(=O)SC(=S)N(C)C [isopropoxycarbonyl dimethyldithiocarbamate]	–	–	–	–	–	–	–	–	–	–	–	–	–	–	–	–	–	–	–	–	biological activity after ultraviolet light treatment [2]: without losing any biological activity
